Data reported in patent US20210087167A1, “ASK1 INHIBITOR COMPOUNDS AND USES THEREOF” (SEAL ROCK THERAPEUTICS, INC., priority 2017, published 2021).

Each compound was assayed against T1, ASK1 (Homo sapiens, UniProt Q99683) (assay: ASK1 Kinase Assay (Promega ASK1 Kinase Enzyme System, ADP-Glo)). Details: enzyme 50 nM, myelin basic protein 1 μg/ml, ATP 10 μM.
T1 construct: purchased Promega V3881
T1 sequence (Q99683 649-946 limits assumed): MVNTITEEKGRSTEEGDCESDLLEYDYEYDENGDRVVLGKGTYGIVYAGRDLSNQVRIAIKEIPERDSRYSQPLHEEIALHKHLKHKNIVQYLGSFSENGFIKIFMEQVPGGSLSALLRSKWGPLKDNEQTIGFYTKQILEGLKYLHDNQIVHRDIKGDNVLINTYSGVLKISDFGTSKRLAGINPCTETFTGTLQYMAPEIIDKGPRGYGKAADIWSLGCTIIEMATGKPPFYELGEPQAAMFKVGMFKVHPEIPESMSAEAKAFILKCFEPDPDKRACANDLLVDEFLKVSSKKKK
Format: biochemical
Procedure: The ASK1 enzymatic assay was run following Promega ASK1 Kinase Enzyme System (Cat #V3881). The kit provides the protocol, enzymes and all reagents necessary to run an assay.
Firstly, the compounds, enzyme, substrate and ATP were diluted in provided assay buffer. The final concentration of the enzyme was 50 nM, substrate (Myelin basic protein) 1 μg/ml and ATP 10 μM. The compound and the enzyme were pre-incubated in a 384 well white solid bottom plate (Greiner, Cat #784075) for 10 minutes. After incubation, the substrate and ATP were added and incubated for further 60 minutes. After 60 minutes, ADP-Glo™ was added and plate was incubated for another 40 minutes. After 40 minutes, Kinase Detection Reagent was added and the plate was incubated for 45 minutes. After 45 minutes, plate was read on Perkin Elmer EnVision using luminescence read (0.5 seconds/well).
“2-(6-(4-cyclopropyl-4H-1,2,4-triazol-3-yl)pyridin-2-yl)-5-isopropoxy-6-(pyridin-3-yl)isoindolin-1-one [Compound 70]” was tested, and the IC50 was < 0.2 µM.
In the case of `CN(C)c1ccc2c(c1)CN(c1cccc(-c3nncn3C3CC3)n1)C2=O` [Compound 34], the IC50 is reported as < 0.2 µM.
For `O=C(Nc1cc2c(cc1F)CN(c1cccc(-c3nncn3C3CC3)n1)C2=O)C1CC1` [Compound 75, N-(2-(6-(4-cyclopropyl-4H-1,2,4-triazol-3-yl)pyridin-2-yl)-6-fluoro-3-oxoisoindolin-5-yl)cyclopropanecarboxamide], the IC50 was 0.2 to 1 µM.
In the case of `Cn1ccc(-c2ccc3c(c2)CN(c2cccc(-c4nncn4C4CC4)n2)C3=O)n1` [Compound 27], the IC50 is reported as < 0.2 µM.

These compounds were tested on LPS-induced TNFalpha in human PBMCs (assay: Inhibition of LPS-induced TNFalpha in human PBMCs (ELISA)). Details: PBMC, 100 ng/ml LPS, 6 hr, read-out: TNFa Inhibition IC50.
Format: cell-based
Procedure: Cryopreserved human PBMCs were obtained from AllCells (cat #PB003F). After thawing/dilution protocols using RPMI medium supplemented with 5% FBS (heat inactivated), 100 ul/well of 1×10^6 cells/ml were plated into 96 well tissue culture plates (Corning). Cells were then pre-incubated for 1 hr at 37° C. in humidified 5% CO2 and 95% air with test compounds diluted in DMSO (final DMSO concentration 0.3%). Each compound was tested at 10 concentrations in duplicate wells. After the pre-incubation, 100 ng/ml LPS (E. Coli; Sigma) in RPMI media with 5% FBS was added for a 6 hr incubation at 37° C. in humidified 5% CO2 and 95% air. Controls on each plate included cells and LPS only, cells and media only (no LPS), and media only. After the 6 hr incubation, plates were centrifuged and the supernatants transferred to a new plate and frozen for subsequent TNFalpha analysis. Human TNFalpha was analyzed by ELISA according to the manufacturer's instructions (BD Sciences, BD OptEIAm Cat #550610) and analyzed on a SpectraMax M series (Molecular Devices) microplate reader at OD 450 nm. IC50s were calculated using XLFit4 curve fitting software (IDBS) and a 4-parameter one-site sigmoid dose response fit.
`O=C(c1ccc2c(c1)CN(c1cccc(-c3nncn3C3CC3)n1)C2=O)N1CCC(O)CC1` [Compound 12, 2-(6-(4-cyclopropyl-4H-1,2,4-triazol-3-yl)pyridin-2-yl)-5-(4-hydroxypiperidine-1-carbonyl)isoindolin-1-one] was tested, and the IC50 was > 10 µM.
In the case of `CC(=O)NC1CCN(C(=O)c2ccc3c(c2)CN(c2cccc(-c4nncn4C4CC4)n2)C3=O)CC1` [Compound 17, N-(1-(2-(6-(4-cyclopropyl-4H-1,2,4-triazol-3-yl)pyridin-2-yl)-1-oxoisoindoline-5-carbonyl)piperidin-4-yl)acetamide], the IC50 is reported as > 10 µM.
In the case of `O=C1c2cc(-c3cnc(C4CC4)cn3)ccc2CN1c1cccc(-c2nncn2C2CC2)n1` [Compound 60, 2-(6-(4-cyclopropyl-4H-1,2,4-triazol-3-yl)pyridin-2-yl)-6-(5-cyclopropylpyrazin-2-yl)isoindolin-1-one], the IC50 is reported as > 10 µM.
In the case of `CC1(O)CCN(C(=O)c2ccc3c(c2)CN(c2cccc(-c4nncn4C4CC4)n2)C3=O)CC1` [Compound 13, 2-(6-(4-cyclopropyl-4H-1,2,4-triazol-3-yl)pyridin-2-yl)-5-(4-hydroxy-4-methylpiperidine-1-carbonyl)isoindolin-1-one], the IC50 is reported as > 10 µM.
In the case of `CC(=O)N1CCN(C(=O)c2ccc3c(c2)CN(c2cccc(-c4nncn4C4CC4)n2)C3=O)CC1` [Compound 16, 5-(4-acetylpiperazine-1-carbonyl)-2-(6-(4-cyclopropyl-4H-1,2,4-triazol-3-yl)pyridin-2-yl)isoindolin-1-one], the IC50 is reported as > 10 µM.
With `O=C(c1ccc2c(c1)CN(c1cccc(-c3nncn3C3CC3)n1)C2=O)N1CCOCC1` [Compound 7, 2-(6-(4-cyclopropyl-4H-1,2,4-triazol-3-yl)pyridin-2-yl)-5-(morpholine-4-carbonyl)isoindolin-1-one] the IC50 was > 10 µM.
